Measurements reported in patent publication US20140249147A1, “Substituted Bicyclic Aza-Heterocycles and Analogues as Sirtuin Modulators” (GlaxoSmithKline, LLC, priority 2011, published 2014).

How the values were obtained:
[1] = molecular target: T1, SIRT1 (Homo sapiens, UniProt Q96EB6); experiment: TAMRA based mass spectrometry assay of SIRT1 activation; type: biochemical; conditions: TAMRA peptide substrate; for Emax: 25 min, percent maximum fold activation relative to control (100%), read-out: TAMRA % Fold Act; for TAMRA EC1.5 (μM): concentration giving 150% activation of SIRT1
T1 sequence (Q96EB6 1-747): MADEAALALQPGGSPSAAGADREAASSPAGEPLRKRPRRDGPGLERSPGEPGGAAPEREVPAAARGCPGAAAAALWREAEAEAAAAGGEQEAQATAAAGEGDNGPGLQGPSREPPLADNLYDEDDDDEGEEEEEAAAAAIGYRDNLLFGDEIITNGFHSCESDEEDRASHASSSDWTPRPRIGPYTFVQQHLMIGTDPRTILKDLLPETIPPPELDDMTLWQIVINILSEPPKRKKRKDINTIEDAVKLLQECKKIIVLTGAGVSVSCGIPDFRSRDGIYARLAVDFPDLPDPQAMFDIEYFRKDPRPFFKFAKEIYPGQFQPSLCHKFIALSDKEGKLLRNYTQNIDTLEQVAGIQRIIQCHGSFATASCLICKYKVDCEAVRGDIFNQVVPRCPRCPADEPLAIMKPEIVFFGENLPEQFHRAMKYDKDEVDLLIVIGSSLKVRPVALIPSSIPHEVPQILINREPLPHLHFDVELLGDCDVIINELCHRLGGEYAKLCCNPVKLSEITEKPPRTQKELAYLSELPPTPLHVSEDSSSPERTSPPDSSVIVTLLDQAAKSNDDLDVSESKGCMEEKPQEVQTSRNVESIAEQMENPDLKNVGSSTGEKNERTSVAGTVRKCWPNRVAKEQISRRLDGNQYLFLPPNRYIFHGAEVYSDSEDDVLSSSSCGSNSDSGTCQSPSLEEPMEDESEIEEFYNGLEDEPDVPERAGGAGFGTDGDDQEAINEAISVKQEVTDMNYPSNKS
Source text: (§1) Mass spectrometry based assays were used to identify modulators of SIRT1 activity. The TAMRA based assay utilized a peptide having 20 amino acid residues as follows: Ac-EE-K(biotin)-GQSTSSHSK(Ac)NleSTEG-K(5TMR)-EE-NH2 (SEQ ID NO: 1), wherein K(Ac) is an acetylated lysine residue and Nle is a norleucine. The peptide was labeled with the fluorophore 5TMR (excitation 540 nm/emission 580 nm) at the C-terminus. The sequence of the peptide substrate was based on p53 with several modifications. In addition, the methionine residue naturally present in the sequence was replaced with the norleucine because the methionine may be susceptible to oxidation during synthesis and purification. The Trp based assay utilized a peptide having an amino acid residues as follows: Ac—R—H—K—K(Ac)—W—NH2 (SEQ ID NO: 2).
The TAMRA based mass spectrometry assay was conducted as follows: 0.5 μM peptide substrate and 120 μM βNAD^+ was incubated with 10 nM SIRT1 for 25 minutes at 25° C. in a reaction buffer (50 mM Tris-acetate pH 8, 137 mM NaCl, 2.7 mM KCl, 1 mM MgCl2, 5 mM DTT, 0.05% BSA). The SIRT1 protein was obtained by cloning the SirT1 gene into a T7-promoter containing vector, which was then transformed and expressed in BL21(DE3) bacterial cells. Test compound was added at varying concentrations to this reaction mixture and the resulting reactions were monitored. After the 25 minute incubation with SIRT1, 10 μL of 10% formic acid was added to stop the reaction. The resulting reactions were sealed and frozen for later mass spec analysis. Determination of the amount of deacetylated substrate peptide formed (or, alternatively, the amount of O-acetyl-ADP-ribose (OAADPR) generated) by the sirtuin-mediated NAD-dependent deacetylation reaction allowed for the precise measurement of relative SIRT1 activity in the presence of varying concentrations of the test compound versus control reactions lacking the test compound.
(§2) A control for inhibition of sirtuin activity was conducted by adding 1 μL of 500 mM nicotinamide as a negative control at the start of the reaction (e.g., permits determination of maximum sirtuin inhibition). A control for activation of sirtuin activity was conducted using 10 nM of sirtuin protein, with 1 μL of DMSO in place of compound, to determine the amount of deacetylation of the substrate at a given time point within the linear range of the assay. This time point was the same as that used for test compounds and, within the linear range, the endpoint represents a change in velocity. For the above assay, SIRT1 protein was expressed and purified as follows. The SirT1 gene was cloned into a T7-promoter containing vector and transformed into BL21(DE3). The protein was expressed by induction with 1 mM IPTG as an N-terminal His-tag fusion protein at 18° C. overnight and harvested at 30,000×g. Cells were lysed with lysozyme in lysis buffer (50 mM Tris-HCl, 2 mM Tris[2-carboxyethyl]phosphine (TCEP), 10 μM ZnCl2, 200 mM NaCl) and further treated with sonication for 10 min for complete lysis. The protein was purified over a Ni-NTA column (Amersham) and fractions containing pure protein were pooled, concentrated and run over a sizing column (Sephadex S200 26/60 global). The peak containing soluble protein was collected and run on an Ion-exchange column (MonoQ). Gradient elution (200 mM-500 mM NaCl) yielded pure protein. This protein was concentrated and dialyzed against dialysis buffer (20 mM Tris-HCl, 2 mM TCEP) overnight. The protein was aliquoted and frozen at −80° C. until further use.
Sirtuin-modulating compounds of Formula (I) that activated SIRT1 were identified using the assay described above and are shown below in Table 1. The EC1.5 values represent the concentration of test compounds that result in 150% activation of SIRT1. The EC1.5 values for the activating compounds of Formula (I) are represented by A (EC1.5<1 μM), B (EC1.5 1-25 μM), C (EC1.5>25 μM). […]

[2] = molecular target: T1, SIRT1; experiment: Trp mass spectrometry assay of SIRT1 activation; type: biochemical; conditions: Trp peptide substrate; for TYP EC1.5 (μM): concentration giving 150% activation of SIRT1; for TYP % Fold Act: percent maximum fold activation relative to control (100%)
Source text: as §1
The Trp mass spectrometry assay was conducted as follows. 0.5 μM peptide substrate and 120 μM βNAD^+ were incubated with 10 nM SIRT1 for 25 minutes at 25° C. in a reaction buffer (50 mM HEPES pH 7.5, […], 1 mM DTT, 0.05% BSA). The SIRT1 protein was obtained by cloning the SirT 1 gene into a T7-promoter containing vector, which was then expressed in BL21(DE3) bacterial cells and purified as described in further detail below. Test compound was added at varying concentrations to this reaction mixture and the resulting reactions were monitored. After the 25 minute incubation with SIRT1, 10 μL of 10% formic acid was added to stop the reaction. The resulting reactions were sealed and frozen for later mass spec analysis. The relative SIRT1 activity was then determined by measuring the amount of O-acetyl-ADP-ribose (OAADPR) formed (or, alternatively, the amount of deacetylated Trp peptide generated) by the NAD-dependent sirtuin deacetylation reaction in the presence of varying concentrations of the test compound versus control reactions lacking the test compound. The degree to which the test agent activated deacetylation by SIRT1 was expressed as EC1.5 (i.e., the concentration of compound required to increase SIRT1 activity by 50% over the control lacking test compound), and Percent Maximum Activation (i.e., the maximum activity relative to control (100%) obtained for the test compound).
as §2
Sirtuin-modulating compounds of Formula (I) that activated SIRT1 were identified using the assay described above and are shown below in Table 1. […]

| SMILES | Emax [1] [%] | TAMRA EC1.5 (μM) [1] | TYP EC1.5 (μM) [2] | TYP % Fold Act [2] |
| --- | --- | --- | --- | --- |
| O=C(Nc1nccs1)c1ccc2nnc(-c3cccc(OC(F)(F)F)c3)n2n1 [Compound 1, N-(thiazol-2-yl)-3-(3-(trifluoromethoxy)phenyl)-[1,2,4]triazolo[4,3-b]pyridazine-6-carboxamide] | < 350 | C (EC1.5>25 μM) | B (EC1.5 1-25 μM) | B (Fold Activation <350%) |
| O=C(Nc1ccccn1)c1ccc2nnc(-c3cccc(N4CCOCC4)c3)n2n1 [Compound 4] | < 350 | C (EC1.5>25 μM) | C (EC1.5>25 μM) | B (Fold Activation <350%) |
| O=C(Nc1nccs1)c1ccc2nnc(-c3cccc(N4CCOCC4)c3)n2n1 [Compound 5, 3-(3-morpholinophenyl)-N-(thiazol-2-yl)-[1,2,4]triazolo[4,3-b]pyridazine-6-carboxamide] | < 350 | C (EC1.5>25 μM) | C (EC1.5>25 μM) | B (Fold Activation <350%) |
| Cc1cc(C)nc(NC(=O)c2ccc3nnc(-c4cccc(C(F)(F)F)c4)n3n2)c1 [Compound 8] | < 350 |  |  | B (Fold Activation <350%) |
| O=C(Nc1ccc2ncc(-c3ccccc3Cl)n2n1)c1cnccn1 [Compound 15] | < 350 | C (EC1.5>25 μM) | C (EC1.5>25 μM) | B (Fold Activation <350%) |
| O=C(Nc1ccc2ncc(-c3ccccc3F)n2n1)c1nccs1 [Compound 22] | < 350 | C (EC1.5>25 μM) | C (EC1.5>25 μM) | B (Fold Activation <350%) |
| O=C(Nc1ccc2ncc(-c3ccccc3F)n2n1)c1ccccn1 [Compound 23] | < 350 | C (EC1.5>25 μM) | C (EC1.5>25 μM) | B (Fold Activation <350%) |
| O=C(Nc1cccc(N2CCOCC2)n1)c1ccc2ncc(-c3ccccc3Cl)n2n1 [Compound 44] | < 350 | C (EC1.5>25 μM) | C (EC1.5>25 μM) | B (Fold Activation <350%) |

Other lines, results leading:

| Emax [1] [%] | TAMRA EC1.5 (μM) [1] | TYP EC1.5 (μM) [2] | TYP % Fold Act [2] | SMILES |
| --- | --- | --- | --- | --- |
| < 350 |  |  | B (Fold Activation <350%) | O=C(Nc1cccc(C(F)(F)F)n1)c1ccc2nnc(-c3cccc(Cl)c3)n2n1 [Compound 6] |
| < 350 | C (EC1.5>25 μM) | C (EC1.5>25 μM) | B (Fold Activation <350%) | O=C(Nc1ccc2ncc(-c3cccc(C(F)(F)F)c3)n2n1)c1cnccn1 [Compound 14] |
| < 350 | C (EC1.5>25 μM) | C (EC1.5>25 μM) | B (Fold Activation <350%) | O=C(Nc1ccc2ncc(-c3cccc(F)c3)n2n1)c1ncccn1 [Compound 16] |
| < 350 | C (EC1.5>25 μM) | C (EC1.5>25 μM) | B (Fold Activation <350%) | O=C(Nc1ccc2ncc(-c3cccc(C(F)(F)F)c3)n2n1)c1nccs1 [Compound 18] |
| < 350 | B (EC1.5 1-25 μM) | C (EC1.5>25 μM) | B (Fold Activation <350%) | O=C(Nc1ccnc(C(F)(F)F)c1)c1ccc2ncc(-c3cccc(Cl)c3)n2n1 [Compound 19] |
| < 350 | C (EC1.5>25 μM) | C (EC1.5>25 μM) | B (Fold Activation <350%) | O=C(Nc1cccc(C(F)(F)F)n1)c1ccc2ncc(-c3ccccc3Cl)n2n1 [Compound 21] |
| < 350 | C (EC1.5>25 μM) | C (EC1.5>25 μM) | B (Fold Activation <350%) | O=C(Nc1cccc(N2CCOCC2)n1)c1ccc2ncc(-c3cccc(F)c3)n2n1 [Compound 38] |
| ≥ 350 | A (EC1.5<1 μM) | A (EC1.5<1 μM) | B (Fold Activation <350%) | O=C(Nc1cccc(N2CCOCC2)n1)c1ccc2ncc(-c3cccc(C(F)(F)F)c3)n2n1 [Compound 48] |
